Measurements from patent publication US12268685B2, “Dosing regimen for injectable cetirizine” (JDP THERAPEUTICS LLC, priority 2019, dated 2025).
Where two headings read alike, the source gives them in different places.

System: subjects with acute urticaria
Conditions: for Developed other symptoms: No / Developed other symptoms: Yes / Needed additional medication: No / Needed additional medication: Yes / Needed medication prescribed at discharge: No / Needed medication prescribed at discharge: No medication prescribed / Needed medication prescribed at discharge: Yes / Recurrence of allergic symptoms: No / Recurrence of allergic symptoms: Yes / Returned to normal activity: No / Returned to normal activity: Yes: ITT; for Patient-rated pruritus severity score, 2 Hour Change from Baseline, mean (primary efficacy measure): LOCF
[1] = 24 hrs after discharge, count (percentage)
[2] = 48 hrs after discharge, count (percentage)
[3] = ITT Population, listed as diphenhydramine
[4] = ITT Population, before treatment
[5] = ITT Population, count (percentage)

CN(C)CCOC(c1ccccc1)c1ccccc1 [Diphenhydramine Injection]
Developed other symptoms: No [1]: 107 (79.26)
Developed other symptoms: Yes [1]: 22 (16.30)
Needed additional medication: No [1]: 94 (69.63)
Needed additional medication: Yes [1]: 35 (25.93)
Needed medication prescribed at discharge: No [1]: 39 (28.89)
Needed medication prescribed at discharge: No medication prescribed [1]: 21 (15.56)
Needed medication prescribed at discharge: Yes [1]: 69 (51.11)
Recurrence of allergic symptoms: No [1]: 58 (42.96)
Recurrence of allergic symptoms: Yes [1]: 71 (52.59)
Returned to normal activity: No [1]: 29 (21.48)
Returned to normal activity: Yes [1]: 100 (74.07)
Developed other symptoms: No [2]: 114 (84.44)
Developed other symptoms: Yes [2]: 13 (9.63)
Needed additional medication: No [2]: 101 (74.81)
Needed additional medication: Yes [2]: 26 (19.26)
Needed medication prescribed at discharge: No [2]: 31 (22.96)
Needed medication prescribed at discharge: No medication prescribed [2]: 20 (14.81)
Needed medication prescribed at discharge: Yes [2]: 76 (56.30)
Recurrence of allergic symptoms: No [2]: 74 (54.81)
Recurrence of allergic symptoms: Yes [2]: 53 (39.26)
Returned to normal activity: No [2]: 22 (16.30)
Returned to normal activity: Yes [2]: 105 (77.78)
Course of subject-rated sedation scores after treatment (ITT Population): remained above baseline through discharge
Patient-rated pruritus severity score, 1 Hour Assessment, mean (ITT Population): 0.83
Patient-rated pruritus severity score, 1 Hour Change from Baseline, mean (ITT Population): −1.36
Patient-rated pruritus severity score, 2 Hour Assessment, mean (ITT Population): 0.70
Patient-rated pruritus severity score, Discharge Assessment, mean (ITT Population): 0.67
Patient-rated pruritus severity score, Discharge Change from Baseline, mean (ITT Population): −1.52
Physician-rated urticaria/erythema score, 1 Hour Assessment, mean (ITT Population): 1.42
Physician-rated urticaria/erythema score, 1 Hour Change from Baseline, mean (ITT Population): −0.42
Physician-rated urticaria/erythema score, 2 Hour Assessment, mean (ITT Population): 1.33
Physician-rated urticaria/erythema score, 2 Hour Change from Baseline, mean (ITT Population): −0.51
Physician-rated urticaria/erythema score, Discharge Assessment, mean (ITT Population): 1.33
Physician-rated urticaria/erythema score, Discharge Change from Baseline, mean (ITT Population): −0.51
Subject-rated sedation score, 1 Hour Assessment, mean (ITT Population): 1.10
Subject-rated sedation score, 1 Hour Change from Baseline, mean (ITT Population): 0.70
Subject-rated sedation score, 2 Hour Assessment, mean (ITT Population): 0.88
Subject-rated sedation score, 2 Hour Change from Baseline, mean (ITT Population): 0.49
Subject-rated sedation score, Discharge Assessment, mean (ITT Population): 0.86
Subject-rated sedation score, Discharge Change from Baseline, mean (ITT Population): 0.47
Time spent at the treatment center, Mean (SD) (ITT Population): 2.07 (1.112) Hours
Time spent at the treatment center, Median (ITT Population): 2.02 h
Patient-rated pruritus severity score, 2 Hour Change from Baseline, mean (primary efficacy measure) (ITT Population): −1.50
Patient-rated pruritus severity score, 2 Hour Change from Baseline, mean (primary efficacy measure) [3]: −1.50 (0.984)
Patient-rated pruritus severity score, Baseline Assessment, mean [4]: 2.19
Physician-rated urticaria/erythema score, Baseline Assessment, mean [4]: 1.84
Subject-rated sedation score, Baseline Assessment, mean [4]: 0.39
Subjects who returned to the treatment center: No [5]: 116 (85.93)
Subjects who returned to the treatment center: Yes [5]: 19 (14.07)
Time spent at the treatment center, Mean (SD) [3]: 2.1 (1.1) Hours
Effectively treated subjects, yes (Investigator's opinion, count (percentage)): 93 (68.89)
Proportion of patients returning to any emergency department or clinic (clinical trials, treatment group): 14%
Subjects needed rescue drug, yes (count (percentage)): 37 (27.41)
Pruritus treatment success, yes (score reduction of at least 1 unit at 2 hr, count (percentage)): 111 (82.22)
